Laboratory results reported in patent US20070122437A1, “Novel insecticide composition and use thereof particularly for impregnating mosquito nets, fly screens and the like” (priority 2004, published 2007).

Key:
Type in all cases: in vivo
[1] = test system: Aedes aegypti females, strain sensitive to pyrethroids; assay: Irritability test (time for first take-off in cone on impregnated paper), strain sensitive to pyrethroids
Description: (§1) In order to evaluate the irritant effect or irritability, an Ae. aegypti female which is not gorged and is from 2 to 5 days old is introduced into a polyethylene cone the bottom of which is an impregnated paper. After an adaptation time of 60 seconds, the time for first take-off is noted and recorded as time for First Take-off (or FT). After 256 seconds, if the mosquito has not taken off, the test is stopped. For each test, the flying activity of 50 females is noted, and each test is repeated three times. The females are sorted into classes according to their time for first take-off and the cumulative first take-off frequencies are used in order to calculate the time at which 50% of the females have taken off (FT50). All the tests take place under controlled conditions, at 27° C.±2 and 80% ±10 humidity.
(§2) The irritability tests were carried out (a female in a cone in contact with the impregnated surface, reading of the time for first take-off after the Ist minute has passed, 50 females per test) according to the following protocol.
Ae. aegypti females which have not fed on blood, from 2 to 5 days old, were introduced individually into plastic cones applied to treated filter papers. After an adaptation time of exactly 60 seconds, the time which has passed between the first landing and the next take-off was defined as being <<the first take-off time>> (FT). The observation was not extended for the rare mosquitoes which had not taken off after 256 seconds. For each test, 50 mosquitoes were tested individually. A simple computer program using the internal clock of a laptop computer was used in order to carry out this test and in order to analyze the results grouping the mosquitoes into classes for time of first take-off. The time at which 50% of the mosquitoes have left the treated surface (median first take-off time, FT50) and its confidence interval at 95% were then determined using the log-probit method.

[2] = test system: Aedes aegypti females, strain sensitive to pyrethroids; assay: WHO tube test on impregnated paper (KD effect and 24 h mortality), strain sensitive to pyrethroids
Description: (§3) Determination of the LC100 usually takes place according to the standard tube test protocol defined by the World Health Organization (WHO) (6). Briefly, the tube test is composed of an observation tube and an exposure tube (the two tubes are removable) separated by a slide unit equipped with a partition making it possible to obstruct or re-establish the passage between the two tubes. The other end of each tube is sealed by a ventilation plug equipped with a mesh screen. Each tube is lined, for the purposes of the tests, with Whatman paper (standard qualitative filter paper ref 1002 917 or else Whatman N°1) held on the edges by two metal rings. The exposure tube receives paper impregnated with insecticide (impregnated surface on the inside) while the observation tube receives non-impregnated (neutral) paper. In order to impregnate the papers in a homogeneous fashion and to the saturation limit, 2 ml of solution constituted by 0.66 ml of silicone and 1.34 ml of acetone solution are used. For an impregnation at X mg/m^2, the quantity of active ingredient to be deposited on the paper (12 cm×15 cm i.e. 0.018 m^2) is 0.018.X mg of active ingredient (quantity to be adjusted as a function of the degree of purity of the technical product). This quantity of active ingredient is then diluted in 1.34 ml of acetone solution to which 0.66 ml of silicone is then added. The paper dries at ambient temperature, in the dark for 12 hours before the start of the test. The concentrations are expressed in % of active ingredient relative to the volume of silicone on the paper (as the acetone is volatile).
In order to evaluate the mortality and the KD effect, 25 Ae. aegypti females which are not gorged and are from 2 to 5 days old are introduced into the exposure tube and are left in contact for one hour at 27° C.±2 and 80%±10 humidity. The number of mosquitoes which have fallen to the bottom of the tube is noted every 10 minutes. After 60 minutes, the mosquitoes are transferred into the observation tube, with sugared juice and placed in an incubator at 27° C.±2 and 80% ±10 humidity. The mortality is noted at 24 hours. The time at which 50% of the females are knocked-down (KDT50) as well as its confidence interval are determined using a log-probit analysis (7). Four tubes are tested per solution and each test is repeated three times (triple test method).
The tarsal contact tests were implemented using filter paper (standard qualitative filter paper ref 1002 917 or else Whatman N° 1) impregnated with technical quality products according to the recommendations of the World Health Organization (WHO, 6). The filter papers were treated using solutions of insecticide and/or insect repellent diluted in acetone with silicone oil as support. The impregnation of the paper was carried out with 2 ml of the solutions to be tested, then the paper was dried for 12 h. The mortality and the KD effect resulting from the tarsal contacts with treated filter paper were measured using the adult mosquito test tubes of the WHO. The concentrations were expressed in weight of active ingredient relative to the surface of treated filter paper surface. Batches of 25 Ae. aegypti females which have not fed on blood, from 2 to 5 days old, were introduced into holding tubes and kept for 1 h (adaptation time) at 27±2° C. and 80±10% humidity. The mosquitoes were then transferred into the exposure tube and placed under dimmed light for 1 h. For the purpose of comparison with pyrethroids, which are rapid action insecticides, the number of mosquitoes knocked down at the bottom of the tubes was counted at regular intervals of 10 min. The time at which 50% of the mosquitoes are knocked down (KDT50) and its confidence interval at 95% were then determined using the log-probit method (7). The mortality was recorded after 24 hours of exposure. Each concentration was tested four times and each test was repeated three times with different groups of insects in order to consider inter-batch variability. […]

[3] = test system: Aedes aegypti females, a strain resistant to pyrethroids (homozygous for the kdr gene); assay: WHO tube test on impregnated paper (KD effect and 24 h mortality), strain resistant to pyrethroids
Description: as §3, with “The concentrations are expressed in % of active ingredient relative to the volume of silicone on the paper (as the acetone is volatile).” left out
The tarsal contact tests were implemented using filter paper (standard qualitative filter paper ref 1002 917 or else Whatman N° 1) impregnated with technical quality products according to the recommendations of the World Health Organization (WHO, 6). […] The mortality and the KD effect resulting from the tarsal contacts with treated filter paper were measured using the adult mosquito test tubes of the WHO. […] For the purpose of comparison with pyrethroids, which are rapid action insecticides, the number of mosquitoes knocked down at the bottom of the tubes was counted at regular intervals of 10 min. […]

[4] = test system: Aedes aegypti females, a strain resistant to pyrethroids (homozygous for the kdr gene); assay: Irritability test (time for first take-off in cone on impregnated paper), strain resistant to pyrethroids; conditions: 5.1 mg/m^2
Description: as §1, with “humidity. […]” for “humidity.”
as §2
Ae. aegypti females which have not fed on blood, from 2 to 5 days old, were introduced individually into plastic cones applied to treated filter papers. […] The time at which 50% of the mosquitoes have left the treated surface (median first take-off time, FT50) and its confidence interval at 95% were then determined using the log-probit method. […]

[5] = sensitive strain, impregnated paper

SMILES | Irritability FT50 ([1]; 364 mg/m^2 on impregnated paper) [s] | mortality at 364 mg/m2 ([2]; Aedes aegypti, 364 mg/m^2, 1 h contact, read after 24 h, sensitive strain) [%] | insecticide effect (in words) ([2]; DEET alone, 364 mg/m^2) | mortality at 364 mg/m2 ([3]; 364 mg/m^2, 1 h contact, read after 24 h, resistant strain) [%] | Irritability FT50 ([1]; 7.28 mg/m^2 on impregnated paper) [s] | mortality at 7.28 mg/m2 ([2]; Aedes aegypti) [%] | lethal concentration 30 (LC30) [2, 5] [mg/m^2] | mortality at 3.64 mg/m2 [3] [%] | Irritability FT50 ([1]; 0.728 mg/m^2 (LC30)) [s] | Irritability FT50 ([1]; 5.1 mg/m^2 (LC100)) [s] | mortality at 0.728 mg/m2 ([2]; Aedes aegypti, 0.728 mg/m^2, 1 h contact, read after 24 h, sensitive strain) [%] | mortality at 5.1 mg/m2 ([2]; Aedes aegypti, 5.1 mg/m^2, 1 h contact, read after 24 h, sensitive strain) [%] | LC100 [2, 5] [mg/m^2] | Irritability FT50 [4] [s] | mortality at 5.1 mg/m2 ([3]; 5.1 mg/m^2, 1 h contact, read after 24 h, resistant strain) [%]
CCN(CC)C(=O)c1cccc(C)c1 [DEET, N,N-diethyl-meta-toluamide] | 24.2 | 0 | does not itself have any insecticide effect | 0 |  |  |  |  |  |  |  |  |  |  | 
CNC(=O)Oc1ccccc1OC(C)C [Propoxur, 2-isopropyloxyphenolmethylcarbamate] |  |  |  |  | 133.9 | 34 | 7.28 | 34.5 |  |  |  |  |  |  | 
CC1(C)[C@H](C(=O)O[C@H](C#N)c2cccc(Oc3ccccc3)c2)[C@@H]1C=C(Br)Br [deltamethrin] |  |  |  |  |  |  | 0.728 |  | 23.9 | 16.9 | 34 | 100 | 5.1 | 34.98 | 8
